From the kinase profiling compilation of Christmann-Franck et al. (2016)
Blank lines part the entries; values can stand above or below the compound they belong to.

Legend:
EPHA3 (human) = EPHA3 (human) (UniProt P29320); assay: SelectScreen, TR FRET
CHEK2 (human) = CHEK2 (human) (UniProt O96017); assay: SelectScreen, TR FRET
PRKCQ (human) = PRKCQ (human) (UniProt Q04759); assay: SelectScreen, TR FRET
JAK3 JH1 JH2 (human) = JAK3 JH1 JH2 (human) (UniProt P52333); assay: SelectScreen, TR FRET
PRKACA (human) = PRKACA (human) (UniProt P17612); assay: SelectScreen, TR FRET
MAPK9 (human) = MAPK9 (human) (UniProt P45984); assay: SelectScreen, TR FRET
MAPK9 (human), sequence (P45984 whole entry, looked up): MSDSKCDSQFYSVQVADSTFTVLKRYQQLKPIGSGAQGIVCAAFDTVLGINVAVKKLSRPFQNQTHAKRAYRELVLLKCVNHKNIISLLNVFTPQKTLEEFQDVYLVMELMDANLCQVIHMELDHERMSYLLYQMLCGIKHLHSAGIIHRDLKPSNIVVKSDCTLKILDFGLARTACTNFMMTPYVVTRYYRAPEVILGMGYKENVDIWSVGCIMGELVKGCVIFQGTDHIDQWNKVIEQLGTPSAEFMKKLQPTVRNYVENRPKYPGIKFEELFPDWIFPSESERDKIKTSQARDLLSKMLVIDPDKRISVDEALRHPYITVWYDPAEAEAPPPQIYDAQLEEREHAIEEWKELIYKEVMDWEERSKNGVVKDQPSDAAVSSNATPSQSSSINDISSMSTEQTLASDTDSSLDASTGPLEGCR

AKT1 (human) = AKT1 (human) (UniProt P31749); assay: SelectScreen, TR FRET
NEK4 (human) = NEK4 (human) (UniProt P51957); assay: SelectScreen, TR FRET
CDK2 CCNA2 (human) = CDK2 CCNA2 (human) (UniProt P24941+P20248); assay: SelectScreen, TR FRET
ACVR1B (human) = ACVR1B (human) (UniProt P36896); assay: SelectScreen, TR FRET
NUAK1 (human) = NUAK1 (human) (UniProt O60285); assay: SelectScreen, TR FRET
RPS6KA3 KD1 KD2 (human) = RPS6KA3 KD1 KD2 (human) (UniProt P51812); assay: SelectScreen, TR FRET
RPS6KA3 KD1 KD2 (human), sequence (P51812 whole entry, looked up): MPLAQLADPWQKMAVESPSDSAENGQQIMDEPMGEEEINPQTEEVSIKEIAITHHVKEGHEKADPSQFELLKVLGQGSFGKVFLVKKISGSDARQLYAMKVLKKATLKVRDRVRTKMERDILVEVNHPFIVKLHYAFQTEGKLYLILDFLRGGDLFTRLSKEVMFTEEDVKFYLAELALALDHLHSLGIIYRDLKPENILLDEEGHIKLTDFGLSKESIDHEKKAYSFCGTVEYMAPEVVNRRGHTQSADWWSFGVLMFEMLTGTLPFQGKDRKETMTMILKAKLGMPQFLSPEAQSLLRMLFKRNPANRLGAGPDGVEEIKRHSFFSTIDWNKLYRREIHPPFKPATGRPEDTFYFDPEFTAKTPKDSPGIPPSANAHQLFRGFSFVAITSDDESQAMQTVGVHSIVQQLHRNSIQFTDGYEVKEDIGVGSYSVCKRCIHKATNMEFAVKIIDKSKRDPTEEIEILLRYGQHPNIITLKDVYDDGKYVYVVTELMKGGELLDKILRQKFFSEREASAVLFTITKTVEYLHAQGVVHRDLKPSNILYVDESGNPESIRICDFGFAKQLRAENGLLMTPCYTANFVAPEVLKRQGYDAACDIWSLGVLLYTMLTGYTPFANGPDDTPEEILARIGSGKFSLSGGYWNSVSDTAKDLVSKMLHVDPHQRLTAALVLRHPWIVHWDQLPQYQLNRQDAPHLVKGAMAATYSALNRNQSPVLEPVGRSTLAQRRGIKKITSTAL

SRPK1 (human) = SRPK1 (human) (UniProt Q96SB4); assay: SelectScreen, TR FRET
SPHK1 (human) = SPHK1 (human) (UniProt Q9NYA1); assay: SelectScreen, TR FRET
SPHK1 (human), sequence (Q9NYA1 whole entry, looked up): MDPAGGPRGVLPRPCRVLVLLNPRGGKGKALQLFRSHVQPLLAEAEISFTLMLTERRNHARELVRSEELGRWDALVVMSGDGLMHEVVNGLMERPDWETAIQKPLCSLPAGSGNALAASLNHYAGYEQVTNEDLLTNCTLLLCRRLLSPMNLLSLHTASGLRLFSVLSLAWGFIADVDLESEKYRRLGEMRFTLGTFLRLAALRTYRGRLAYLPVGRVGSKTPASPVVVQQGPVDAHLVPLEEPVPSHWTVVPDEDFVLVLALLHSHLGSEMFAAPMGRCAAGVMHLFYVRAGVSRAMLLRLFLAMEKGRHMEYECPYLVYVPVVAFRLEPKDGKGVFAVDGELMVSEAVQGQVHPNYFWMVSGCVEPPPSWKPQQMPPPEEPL

PAK1 (human) = PAK1 (human) (UniProt Q13153); assay: SelectScreen, TR FRET
PAK1 (human), sequence (Q13153 whole entry, looked up): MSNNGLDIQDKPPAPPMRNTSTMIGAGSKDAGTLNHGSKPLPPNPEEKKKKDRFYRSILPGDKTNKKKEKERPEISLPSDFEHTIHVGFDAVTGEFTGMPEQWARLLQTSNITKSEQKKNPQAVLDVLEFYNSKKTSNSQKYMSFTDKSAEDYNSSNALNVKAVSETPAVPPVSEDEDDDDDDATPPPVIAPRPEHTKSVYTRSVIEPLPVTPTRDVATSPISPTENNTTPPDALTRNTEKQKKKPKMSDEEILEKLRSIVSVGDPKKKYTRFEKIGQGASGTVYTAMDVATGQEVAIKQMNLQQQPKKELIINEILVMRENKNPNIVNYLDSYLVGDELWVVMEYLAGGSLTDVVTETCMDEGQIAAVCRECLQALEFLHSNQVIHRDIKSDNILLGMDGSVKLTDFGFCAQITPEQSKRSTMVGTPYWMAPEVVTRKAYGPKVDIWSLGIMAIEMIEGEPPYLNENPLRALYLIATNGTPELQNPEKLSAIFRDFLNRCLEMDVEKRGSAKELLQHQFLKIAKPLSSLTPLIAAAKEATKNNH

TBK1 (human) = TBK1 (human) (UniProt Q9UHD2); assay: SelectScreen, TR FRET
BTK (human) = BTK (human) (UniProt Q06187); assay: SelectScreen, TR FRET
EPHA8 (human) [1] = target: EPHA8 (human) (UniProt P29322); assay: SelectScreen, TR FRET
PLK1 (human) = PLK1 (human) (UniProt P53350); assay: SelectScreen, TR FRET
PRKG2 (human) = PRKG2 (human) (UniProt Q13237); assay: SelectScreen, TR FRET
MET (human) [2] = target: MET (human) (UniProt P08581); assay: TR FRET
MET (human) [3] = target: MET (human) (UniProt P08581); assay: Caliper, Mobility shift assay off-chip
[4] = tested on: MET (human), P08581 [M1250T]; assay: Caliper, Mobility shift assay off-chip
[5] = tested on: KIT (human), P10721 [T670I]; assay: Caliper, Mobility shift assay off-chip
[6] = tested on: PDGFRA (human), P16234 [V561D]; assay: Caliper, Mobility shift assay off-chip
HIPK2 (human) = HIPK2 (human) (UniProt Q9H2X6); assay: Caliper, Mobility shift assay off-chip
HIPK2 (human), sequence (Q9H2X6 whole entry, looked up): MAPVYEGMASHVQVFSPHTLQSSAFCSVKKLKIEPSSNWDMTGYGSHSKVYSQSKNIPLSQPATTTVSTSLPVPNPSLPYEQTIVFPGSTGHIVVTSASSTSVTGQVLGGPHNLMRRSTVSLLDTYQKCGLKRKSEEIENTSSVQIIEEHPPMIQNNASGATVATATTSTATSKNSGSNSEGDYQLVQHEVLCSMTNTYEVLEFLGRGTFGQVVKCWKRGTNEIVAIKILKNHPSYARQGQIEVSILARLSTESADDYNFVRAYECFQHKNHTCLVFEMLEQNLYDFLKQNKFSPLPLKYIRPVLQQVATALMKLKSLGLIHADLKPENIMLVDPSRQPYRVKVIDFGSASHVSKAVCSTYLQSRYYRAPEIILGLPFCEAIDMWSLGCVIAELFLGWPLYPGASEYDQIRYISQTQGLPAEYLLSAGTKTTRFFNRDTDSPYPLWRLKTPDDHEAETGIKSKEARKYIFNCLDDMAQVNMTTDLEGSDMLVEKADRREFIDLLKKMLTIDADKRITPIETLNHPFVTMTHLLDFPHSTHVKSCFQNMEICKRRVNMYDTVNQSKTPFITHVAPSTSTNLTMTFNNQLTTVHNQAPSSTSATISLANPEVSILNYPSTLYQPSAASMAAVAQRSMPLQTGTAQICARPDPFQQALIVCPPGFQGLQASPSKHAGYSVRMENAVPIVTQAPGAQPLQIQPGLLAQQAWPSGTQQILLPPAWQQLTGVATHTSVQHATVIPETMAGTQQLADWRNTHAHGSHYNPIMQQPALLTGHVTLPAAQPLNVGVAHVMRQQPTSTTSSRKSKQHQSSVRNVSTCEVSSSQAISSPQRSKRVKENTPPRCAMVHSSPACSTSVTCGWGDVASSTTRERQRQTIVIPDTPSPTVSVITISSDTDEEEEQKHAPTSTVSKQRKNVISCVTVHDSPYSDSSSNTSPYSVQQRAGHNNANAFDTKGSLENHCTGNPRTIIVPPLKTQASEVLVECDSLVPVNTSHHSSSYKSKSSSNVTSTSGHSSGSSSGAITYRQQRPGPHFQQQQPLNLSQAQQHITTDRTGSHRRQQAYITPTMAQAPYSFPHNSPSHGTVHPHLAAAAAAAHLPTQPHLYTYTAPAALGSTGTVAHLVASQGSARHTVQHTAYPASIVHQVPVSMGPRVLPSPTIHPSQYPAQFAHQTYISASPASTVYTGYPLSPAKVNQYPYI

EPHA8 (human) [7] = target: EPHA8 (human) (UniProt P29322); assay: Caliper, Mobility shift assay off-chip
TYRO3 (human) = TYRO3 (human) (UniProt Q06418); assay: Caliper, Mobility shift assay off-chip
TYRO3 (human), sequence (Q06418 whole entry, looked up): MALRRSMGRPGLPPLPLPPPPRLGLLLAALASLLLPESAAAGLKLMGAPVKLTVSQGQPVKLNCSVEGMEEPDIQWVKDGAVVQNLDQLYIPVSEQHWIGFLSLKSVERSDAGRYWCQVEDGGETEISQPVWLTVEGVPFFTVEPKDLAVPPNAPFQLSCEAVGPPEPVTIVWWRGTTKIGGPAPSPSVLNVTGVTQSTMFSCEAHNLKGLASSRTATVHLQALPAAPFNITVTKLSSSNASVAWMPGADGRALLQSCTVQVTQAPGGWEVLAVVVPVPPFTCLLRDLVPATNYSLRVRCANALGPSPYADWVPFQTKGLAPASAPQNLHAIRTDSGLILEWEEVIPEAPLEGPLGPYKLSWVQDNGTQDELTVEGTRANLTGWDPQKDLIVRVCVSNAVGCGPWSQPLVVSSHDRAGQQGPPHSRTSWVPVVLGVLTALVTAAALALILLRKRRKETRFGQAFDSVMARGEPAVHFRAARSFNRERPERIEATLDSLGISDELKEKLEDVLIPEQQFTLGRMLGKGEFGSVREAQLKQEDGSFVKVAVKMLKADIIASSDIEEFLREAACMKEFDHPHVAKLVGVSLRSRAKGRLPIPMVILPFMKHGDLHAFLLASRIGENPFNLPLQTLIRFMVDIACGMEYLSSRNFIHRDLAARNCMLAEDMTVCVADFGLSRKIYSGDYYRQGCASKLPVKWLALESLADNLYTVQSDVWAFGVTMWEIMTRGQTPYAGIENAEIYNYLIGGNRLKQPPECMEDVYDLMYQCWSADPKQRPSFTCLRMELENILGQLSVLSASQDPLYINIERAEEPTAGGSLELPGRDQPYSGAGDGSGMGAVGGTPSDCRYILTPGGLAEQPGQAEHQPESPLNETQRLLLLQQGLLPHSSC

FRK (human) = FRK (human) (UniProt P42685); assay: Caliper, Mobility shift assay off-chip
[8] = tested on: EGFR (human), P00533 [T790M]; assay: Caliper, Mobility shift assay off-chip

CHEK2 (human), sequence (O96017 whole entry, looked up): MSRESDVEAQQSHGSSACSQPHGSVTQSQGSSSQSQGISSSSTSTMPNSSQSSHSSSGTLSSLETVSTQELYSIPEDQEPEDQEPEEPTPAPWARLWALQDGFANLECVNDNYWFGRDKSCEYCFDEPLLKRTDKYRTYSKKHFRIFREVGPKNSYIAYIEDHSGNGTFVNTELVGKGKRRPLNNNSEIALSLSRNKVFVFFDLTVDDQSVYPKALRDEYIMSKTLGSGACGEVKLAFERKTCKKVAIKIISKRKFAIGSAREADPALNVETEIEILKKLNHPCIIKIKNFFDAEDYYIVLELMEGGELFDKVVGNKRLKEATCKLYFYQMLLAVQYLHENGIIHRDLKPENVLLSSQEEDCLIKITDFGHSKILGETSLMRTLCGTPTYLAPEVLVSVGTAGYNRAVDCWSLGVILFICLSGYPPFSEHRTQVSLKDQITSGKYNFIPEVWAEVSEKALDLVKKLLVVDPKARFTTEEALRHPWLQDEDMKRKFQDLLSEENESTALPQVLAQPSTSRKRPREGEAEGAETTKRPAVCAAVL

inhibition ([5]; compound 0.1 µM): 0.2%
inhibition ([5]; compound 1.0 µM): 21.4%
inhibition ([6]; compound 0.1 µM): 16.9%
inhibition ([6]; compound 1.0 µM): 61.1%
inhibition (HIPK2 (human); compound 0.1 µM): 8.7%
inhibition (HIPK2 (human); compound 1.0 µM): 14.7%
inhibition (EPHA8 (human) [7]; compound 0.1 µM): -1.9%
inhibition (EPHA8 (human) [7]; compound 1.0 µM): 4.6%
inhibition (TYRO3 (human); compound 0.1 µM): 20.2%
inhibition (TYRO3 (human); compound 1.0 µM): 66.3%
inhibition (FRK (human); compound 0.1 µM): 1%
inhibition (FRK (human); compound 1.0 µM): 8%
inhibition ([8]; compound 0.1 µM): 11.2%
inhibition ([8]; compound 1.0 µM): 1.9%
SMILES: CN(c1ccc2ccc3ncc(-c4cnn(C)c4)cc3c(=O)c2c1)S(=O)(=O)NCc1ccccn1

inhibition ([5]; compound 0.01 µM): 1.3%
inhibition ([5]; compound 0.1 µM): -4.9%
inhibition ([6]; compound 0.01 µM): 4.1%
inhibition ([6]; compound 0.1 µM): 19.6%
inhibition (HIPK2 (human); compound 0.01 µM): -0.3%
inhibition (HIPK2 (human); compound 0.1 µM): 7%
inhibition (EPHA8 (human) [7]; compound 0.01 µM): 15.6%
inhibition (EPHA8 (human) [7]; compound 0.1 µM): 0.3%
inhibition (TYRO3 (human); compound 0.01 µM): -1.1%
inhibition (TYRO3 (human); compound 0.1 µM): 9.2%
inhibition (FRK (human); compound 0.01 µM): 0.2%
inhibition (FRK (human); compound 0.1 µM): 3.2%
inhibition ([8]; compound 0.01 µM): -4.4%
inhibition ([8]; compound 0.1 µM): -7.2%
SMILES: Cn1cc(-c2cnc3ccc4ccc(CS(=O)(=O)NC5CCCCC5)cc4c(=O)c3c2)cn1

Second part, the compound before the results:

SMILES: Cn1cc(-c2cnc3ccc4ccc(CC(=O)NCc5ccccn5)cc4c(=O)c3c2)cn1
inhibition (EPHA3 (human); compound 0.1 µM): -1.7%
inhibition (EPHA3 (human); compound 1.0 µM): 5.2%
inhibition (EPHA3 (human); compound 10.0 µM): 16.4%
inhibition (CHEK2 (human); compound 0.1 µM): 11.8%
inhibition (CHEK2 (human); compound 1.0 µM): 17.1%
inhibition (CHEK2 (human); compound 10.0 µM): 43.6%
inhibition (PRKCQ (human); compound 0.1 µM): 7.2%
inhibition (PRKCQ (human); compound 1.0 µM): 7.1%
inhibition (PRKCQ (human); compound 10.0 µM): 7.7%
inhibition (JAK3 JH1 JH2 (human); compound 0.1 µM): 9.3%
inhibition (JAK3 JH1 JH2 (human); compound 1.0 µM): 6.1%
inhibition (JAK3 JH1 JH2 (human); compound 10.0 µM): 25.6%
inhibition (PRKACA (human); compound 0.1 µM): 6.3%
inhibition (PRKACA (human); compound 1.0 µM): 7.7%
inhibition (PRKACA (human); compound 10.0 µM): 9.5%
inhibition (MAPK9 (human); compound 0.1 µM): -1.5%
inhibition (MAPK9 (human); compound 1.0 µM): 3.7%
inhibition (MAPK9 (human); compound 10.0 µM): 10.8%
inhibition (AKT1 (human); compound 0.1 µM): 17.2%
inhibition (AKT1 (human); compound 1.0 µM): 5.5%
inhibition (AKT1 (human); compound 10.0 µM): 9.1%
inhibition (NEK4 (human); compound 0.1 µM): 10.8%
inhibition (NEK4 (human); compound 1.0 µM): 13.5%
inhibition (NEK4 (human); compound 10.0 µM): 37.8%
inhibition (CDK2 CCNA2 (human); compound 0.1 µM): 17%
inhibition (CDK2 CCNA2 (human); compound 1.0 µM): 18.6%
inhibition (CDK2 CCNA2 (human); compound 10.0 µM): 18.3%
inhibition (ACVR1B (human); compound 0.1 µM): 12.8%
inhibition (ACVR1B (human); compound 1.0 µM): 12.6%
inhibition (ACVR1B (human); compound 10.0 µM): 10.1%
inhibition (NUAK1 (human); compound 0.1 µM): -10.5%
inhibition (NUAK1 (human); compound 1.0 µM): 13.6%
inhibition (NUAK1 (human); compound 10.0 µM): 63.9%
inhibition (RPS6KA3 KD1 KD2 (human); compound 0.1 µM): 6.4%
inhibition (RPS6KA3 KD1 KD2 (human); compound 1.0 µM): 7.8%
inhibition (RPS6KA3 KD1 KD2 (human); compound 10.0 µM): 18.9%
inhibition (SRPK1 (human); compound 0.1 µM): 11.1%
inhibition (SRPK1 (human); compound 1.0 µM): 11.5%
inhibition (SRPK1 (human); compound 10.0 µM): 12.5%
inhibition (SPHK1 (human); compound 0.1 µM): -3.4%
inhibition (SPHK1 (human); compound 1.0 µM): -4.1%
inhibition (SPHK1 (human); compound 10.0 µM): -2.1%
inhibition (PAK1 (human); compound 0.1 µM): 19.6%
inhibition (PAK1 (human); compound 1.0 µM): 18.5%
inhibition (PAK1 (human); compound 10.0 µM): -12.1%
inhibition (TBK1 (human); compound 0.1 µM): -1.6%
inhibition (TBK1 (human); compound 1.0 µM): 7.8%
inhibition (TBK1 (human); compound 10.0 µM): 33.2%
inhibition (BTK (human); compound 0.1 µM): 10.9%
inhibition (BTK (human); compound 1.0 µM): 13.4%
inhibition (BTK (human); compound 10.0 µM): 15.4%
inhibition (EPHA8 (human) [1]; compound 0.1 µM): 5.4%
inhibition (EPHA8 (human) [1]; compound 1.0 µM): 6.4%
inhibition (EPHA8 (human) [1]; compound 10.0 µM): 24.3%
inhibition (PLK1 (human); compound 0.1 µM): 8.9%
inhibition (PLK1 (human); compound 1.0 µM): 11.2%
inhibition (PLK1 (human); compound 10.0 µM): 10%
inhibition (PRKG2 (human); compound 0.1 µM): 12.8%
inhibition (PRKG2 (human); compound 1.0 µM): 14.8%
inhibition (PRKG2 (human); compound 10.0 µM): 53.5%

SMILES: O=c1c2cc(CS(=O)(=O)NCc3ccccn3)ccc2ccc2ncc(C3CCNCC3)cc12
IC50 (MET (human) [2]): 1 nM
inhibition (MET (human) [3]; compound 0.01 µM): 94.7%
inhibition (MET (human) [3]; compound 0.1 µM): 99.3%

SMILES: O=C(CCc1ccc2ccc3ncc(C4CCNCC4)cc3c(=O)c2c1)NCc1ccccn1
IC50 (MET (human) [2]): 85 nM
inhibition ([4]; compound 0.1 µM): 87%
inhibition ([4]; compound 1.0 µM): 98.4%
inhibition ([5]; compound 0.1 µM): -3.3%
inhibition ([5]; compound 1.0 µM): -4.9%
inhibition ([6]; compound 0.1 µM): -12.5%
inhibition ([6]; compound 1.0 µM): 21.5%
inhibition (HIPK2 (human); compound 0.1 µM): 3.6%
inhibition (HIPK2 (human); compound 1.0 µM): 3.9%
inhibition (MET (human) [3]; compound 0.1 µM): 74.1%
inhibition (MET (human) [3]; compound 1.0 µM): 95.7%
inhibition (EPHA8 (human) [7]; compound 0.1 µM): 9.4%
inhibition (EPHA8 (human) [7]; compound 1.0 µM): 5.1%
inhibition (TYRO3 (human); compound 0.1 µM): 4.1%
inhibition (TYRO3 (human); compound 1.0 µM): 4.2%
inhibition (FRK (human); compound 0.1 µM): 7.1%
inhibition (FRK (human); compound 1.0 µM): 6.2%
inhibition ([8]; compound 0.1 µM): 1.6%
inhibition ([8]; compound 1.0 µM): -11.1%
